Measured values from PubChem BioAssay (NCI).
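Exposure lasted 48 hours, with cells grown in 96-well plates and compounds tested at five concentrations. Abbreviation: GI50, concentration required for 50% inhibition of growth. The concentration for full growth arrest is given as TGI.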

Columns and labels:
Assay in all cases: growth of human tumour cells (NCI), 48 h
PC-3 prostate = system: PC-3 prostate
DU-145 prostate = system: DU-145 prostate
NCI/ADR-RES ovarian = system: NCI/ADR-RES ovarian
T-47D breast = system: T-47D breast
MCF7 breast = system: MCF7 breast
MDA-MB-231 breast = system: MDA-MB-231 breast
HS 578T breast = system: HS 578T breast
DLD-1 colon = system: DLD-1 colon
UACC-62 melanoma = system: UACC-62 melanoma
SNB-78 CNS = system: SNB-78 CNS
LXFL 529 NSCLC = system: LXFL 529 NSCLC

Row | SMILES | GI50 (PC-3 prostate) [µM] | TGI (PC-3 prostate) [µM] | GI50 (DU-145 prostate) [nM] | TGI (DU-145 prostate) [µM] | GI50 (NCI/ADR-RES ovarian) [nM] | TGI (NCI/ADR-RES ovarian) [µM] | GI50 (T-47D breast) [µM] | TGI (T-47D breast) [µM] | GI50 (MCF7 breast) [µM] | TGI (MCF7 breast) [µM] | GI50 (MDA-MB-231 breast) [µM] | TGI (MDA-MB-231 breast) [µM] | GI50 (HS 578T breast) [µM] | TGI (HS 578T breast) [µM] | TGI (DLD-1 colon) [µM] | TGI (UACC-62 melanoma) [µM] | TGI (SNB-78 CNS) [µM] | TGI (LXFL 529 NSCLC) [µM] | GI50 (UACC-62 melanoma) [nM]
1 | O=[N+]([O-])c1ccc(N/N=C\c2ccc(O)cc2O)nc1 | 5.73 | > 100 | 1770 | > 100 | 498 | 31.2 | 4.04 | > 100 | 3.4 | > 100 | 2.1 | > 100 | 38.3 | > 100 | – | – | – | – | –
2 | CSc1nc(NC2OC(CO)C(O)C(O)C2O)c(N)c(=O)[nH]1 (stereo not given) | – | – | – | – | – | > 100 | – | – | – | > 100 | – | – | – | – | > 100 | > 100 | > 100 | – | –
3 | O=c1n(CC2CO2)c2ccccc2n1CC1CS1 (stereo not given) | – | – | – | – | – | – | – | – | – | – | – | – | – | – | – | > 100 | – | > 100 | –
4 | COc1ccc(Nc2cnc3cc(N)ccc3n2)cc1OC | – | – | – | – | – | – | – | – | – | – | – | – | – | – | > 100 | > 100 | – | > 100 | –
5 | O=C(O)c1cc2sc(C(=O)O)cc2s1 | – | – | – | – | – | – | – | – | – | – | – | – | – | – | > 100 | > 100 | > 100 | > 100 | –
6 | COC(=O)C(Cc1cc(OC)c(OC)c(OC)c1)(NC(=O)c1ccccc1)P(=O)(OC)OC (stereo not given) | – | – | – | – | – | – | – | – | – | – | – | – | – | – | > 100 | > 100 | > 100 | > 100 | –
7 | CCCCCCCCC[C@@H]1C[C@H](O)[C@H](Cc2ccccc2)N1C(=O)OC(C)(C)C | – | – | – | – | – | – | – | – | – | – | – | – | – | – | 33.8 | 33.3 | 41.3 | 30.9 | –
8 | COc1cc(/C=C2\CCCC3=C2N=C2SC=NN2C3c2cc(OC)c(OC)c(OC)c2)cc(OC)c1OC (stereo not given) | 3.1 | > 100 | 3970 | > 100 | 3450 | > 100 | 3.9 | > 100 | 3.82 | > 100 | 4.95 | > 100 | 4.85 | > 100 | – | 3.66 | – | – | 1680
9 | Nc1[nH]nc2c1Cc1c(n(Cc3ccc(Cl)cc3)c3ccccc13)C(=O)N2 | – | 23.5 | – | 24.4 | – | 44.6 | – | 28.9 | – | 26.9 | – | 30.6 | – | 40.2 | – | > 100 | – | – | –
